Results reported in US11173154B2 (priority 2015, dated 2021).
Read-outs that look alike come from different tables or passages of the source.

Assays:
C57BL/6J mice [1] = experiment: LPS-induced septic shock model; assay type: in vivo, mouse; conditions: LPS 10 mg/kg i.p., CPT 30 mg/kg 30 minutes before and one hour after LPS
[2] = tested on: Legionella pneumophila serogroup 1; conditions: guinea pig, in vivo
[3] = tested on: GM-CSF, IL-1β, IL-6 and TNFα in mouse serum; experiment: Serum cytokines 4 hours after LPS injection; assay type: in vivo; conditions: mice
C57BL/6J mice [4] = experiment: Cecal ligation puncture (CLP) model; conditions: CPT 30 mg/kg i.v. 6 hours and twice at day 2, 60 mg/kg i.p. day 3 post-surgery
spleen of C57BL/6J mice = conditions: LPS+CPT, 90 minutes after LPS
[5] = tested on: RNAPII and Top1 at transcriptional start sites; assay type: cell-based; conditions: A549, PR8ΔNS1

SMILES | DNA damage (H2AX staining) at the concentration used (A549 cells; A549, 0.5 μM CPT, 100 nM TPT, 6 hours p.i.) | concentration at which DNA damage was detectable, relative to the concentration selected (A549 cells; A549, selected 0.5 μM CPT, 100 nM TPT) | survival in lethal endotoxic (septic) shock (C57BL/6J mice [1]) | survival rates [2] | time to death relative to the control group [2] | pro-inflammatory genes and cytokine expression (serum titers) [3] | survival following CLP (C57BL/6J mice [4]) | cell death in vivo (Live/Dead dye, spleen) (spleen of C57BL/6J mice) | inflammatory gene transcription in vivo (spleen) (spleen of C57BL/6J mice) | RNAPII at PAMP-induced genes [5] | concentration at which DNA damage was detectable, relative to the concentration selected (A549 cells; human)
CC[C@@]1(O)C(=O)OCc2c1cc1n(c2=O)Cc2cc3ccccc3nc2-1 [CPT, Camptothecin] | neither TPT- nor CPT-treated cells displayed DNA damage | 20 times higher | rescued animals from lethal endotoxic shock | improved survival rates | delay of death | suppression | improved survival | without inducing cell death | inhibits | suppress | 
CC[C@@]1(O)C(=O)OCc2c1cc1n(c2=O)Cc2cc3c(CN(C)C)c(O)ccc3nc2-1 [TPT, Topotecan] |  |  |  |  |  |  |  |  |  | suppress | 100 times higher
